Literature values in publication PMC9834611 (Pharmacology Research & Perspectives, 2023).

Assays:
[1] = cited from earlier work
[2] = system: CYP3A4; set-up: method as in PMID 25141173; conditions: cited from earlier work
[3] = system: ABCB1; set-up: method as in PMID 11770010; conditions: Caco‐2 cell lines; cited from earlier work

| SMILES | LD50 compared with parent VBL [1] | increase in CYP3A4 mRNA expression [2] | effect on CYP3A4 ([2]; human hepatocytes) | effect on ABCB1 [3] |
| --- | --- | --- | --- | --- |
| CC[C@]1(O)C[C@@H]2CN(CCc3c([nH]c4ccccc34)[C@@](C(=O)OC)(c3cc4c(cc3OC)N(C)[C@H]3[C@@](O)(C(=O)OC)[C@H](O)[C@]5(CC)C=CCN6CC[C@]43[C@@H]65)C2)C1 [4‐deacetylvinblastine] | lower than that of the parent |  |  |  |
| COc1ccc2[nH]c([S+]([O-])Cc3ncc(C)c(OC)c3C)nc2c1 (stereo not shown) [Omeprazole] |  | twofold | inducer | inhibitor |
